# Activity calls are given as the source filed them. The calls are words filed in the database; no cut-off is given here.
# Experiments:
# HCT-116 [1] = experiment: Induction of DNA damage in human HCT-116 cells assessed as increase in phosphorylated gamma-H2AX foci formation at 0.5 to 2 uM incubated for 24 hrs by DAPI staining based immunofluorescence analysis; assay type: functional, cell-based; details: dose 0.5-2 µM
# HCT-116 [2] = experiment: Induction of cell cycle arrest in human HCT-116 cells assessed as accumulation of cells at S phase at 0.5 uM incubated for 24 hrs by RNase/PI staining-based FACS flow cytometry analysis (reference value: 11 %); assay type: functional
# HCT-116 [3] = experiment: Inhibition of DNA repairing pathway in human HCT-116 cells assessed as downregulation of H2AX protein expression at 0.25 to 2 uM incubated for 24 hrs by immunoblotting analysis; assay type: functional, cell-based; details: dose 0.25-2 µM
# HCT-116 [4] = experiment: Induction of cell cycle arrest in human HCT-116 cells assessed as accumulation of cells at G2 phase at 1 uM incubated for 24 hrs by RNase/PI staining-based FACS flow cytometry analysis (reference value: 33 %); assay type: functional
# HCT-116 [5] = experiment: Induction of DNA damage in human HCT-116 cell assessed as increase in olive tail moment at 0.5 uM incubated for 24 hrs by EtBr-based alkaline Comet assay (Rvb= 0.26%); assay type: functional
# [6] = Cytotoxicity against human fR2 cells assessed as cell growth inhibition incubated for 44 hrs by MTT assay; assay type: toxicity, cell-based
# HCT-116 [7] = experiment: Induction of DNA damage in human HCT-116 cell assessed as comet tail formation at 2 uM incubated for 24 hrs by EtBr-based alkaline Comet assay (Rvb= 2.99 %); assay type: functional
# HCT-116 [8] = experiment: Inhibition of DNA repairing pathway in human HCT-116 cells assessed as increase in cleaved PARP level at 0.25 to 2 uM incubated for 24 hrs by immunoblotting analysis; assay type: functional, cell-based; details: dose 0.25-2 µM
# [9] = Drug exposure in BALB/c mouse plasma at 20 mg/kg, ip measured upto 24 hrs by LC-MS/MS analysis; assay type: ADME, organism-based; parameters: dose 20 mg/kg, time < 24 hrs, route ip
# [10] = Tmax in BALB/c mouse at 20 mg/kg, ip measured upto 24 hrs by LC-MS/MS analysis; assay type: ADME, organism-based; details: in vivo
# HCT-116 [11] = experiment: Induction of DNA damage in human HCT-116 cell assessed as comet tail formation at 1 uM incubated for 24 hrs by EtBr-based alkaline Comet assay (Rvb= 2.99 %); assay type: functional
# HCT-116 [12] = experiment: Inhibition of epithelial-to-mesenchymal transition in human HCT-116 cells assessed as downregulation of Twist-1 protein expression by immunoblot analysis; assay type: functional, cell-based
# HCT-116 [13] = experiment: Inhibition of epithelial-to-mesenchymal transition in human HCT-116 cells assessed as downregulation of Snail-1 protein expression by immunoblot analysis; assay type: functional, cell-based
# HCT-116 [14] = experiment: Induction of cell cycle arrest in human HCT-116 cells assessed as accumulation of cells at G2 phase at 2 uM incubated for 24 hrs by RNase/PI staining-based FACS flow cytometry analysis (reference value: 33 %); assay type: functional
# HCT-116 [15] = experiment: Induction of cell cycle arrest in human HCT-116 cells assessed as accumulation of cells at G1 phase at 2 uM incubated for 24 hrs by RNase/PI staining-based FACS flow cytometry analysis (reference value: 51 %); assay type: functional
# [16] = AUC (0 to infinity) in BALB/c mouse at 20 mg/kg, ip measured upto 24 hrs by LC-MS/MS analysis; assay type: ADME, organism-based; parameters: dose 20 mg/kg, time < 24 hrs, route ip; details: in vivo
# HCT-116 [17] = experiment: Inhibition of DNA repairing pathway in human HCT-116 cells assessed as downregulation of XRCC11 protein expression at 0.25 to 2 uM incubated for 24 hrs by immunoblotting analysis; assay type: functional, cell-based; details: dose 0.25-2 µM
# HCT-116 [18] = experiment: Induction of cell cycle arrest in human HCT-116 cells assessed as accumulation of cells at G1 phase at 1 uM incubated for 24 hrs by RNase/PI staining-based FACS flow cytometry analysis (reference value: 51 %); assay type: functional
# 4T1 = experiment: Antitumor activity against mouse 4T1 cells implanted in BALB/c mouse assessed as reduction in tumor volume at 20 mg/kg, ip administered every alternate day for 2 weeks relative to control; assay type: functional; parameters: scale not given: the % may be the effect or the level left
# PC-3 = experiment: Antiproliferative activity against human PC-3 cells assessed as cell growth inhibition incubated for 44 hrs by MTT assay; assay type: functional, cell-based; details: PC-3, 44 h
# HCT-116 [19] = experiment: Induction of DNA double-strand breaks in human HCT-116 cells assessed as increase in gammaH2AX accumulation at 0.25 to 2 uM incubated for 24 hrs by immunoblotting analysis; assay type: functional, cell-based; details: dose 0.25-2 µM
# HCT-116 [20] = experiment: Induction of cell cycle arrest in human HCT-116 cells assessed as accumulation of cells at S phase at 1 uM incubated for 24 hrs by RNase/PI staining-based FACS flow cytometry analysis (reference value: 11 %); assay type: functional
# HCT-116 [21] = experiment: Inhibition of epithelial-to-mesenchymal transition in human HCT-116 cells assessed as upregulation of E-cadherin protein expression by immunoblot analysis; assay type: functional, cell-based
# [22] = Toxicity in BALB/c mouse implanted with mouse 4T1 cells at 20 mg/kg, ip administered every alternate day for 2 weeks; assay type: organism-based; details: in vivo, 336 h
# HCT-116 [23] = experiment: Induction of cell cycle arrest in human HCT-116 cells assessed as accumulation of cells at G1 phase at 0.5 uM incubated for 24 hrs by RNase/PI staining-based FACS flow cytometry analysis (reference value: 51 %); assay type: functional
# HCT-116 [24] = experiment: Inhibition of DNA repairing pathway in human HCT-116 cells assessed as increase in p-Chk2 level at 0.25 to 2 uM incubated for 24 hrs by immunoblotting analysis; assay type: functional, cell-based; details: dose 0.25-2 µM
# HCT-116 [25] = experiment: Induction of DNA damage in human HCT-116 cell assessed as increase in olive tail moment at 4 uM incubated for 24 hrs by EtBr-based alkaline Comet assay (Rvb= 0.26%); assay type: functional
# HCT-116 [26] = experiment: Inhibition of DNA repairing pathway in human HCT-116 cells assessed as downregulation of MRE11 protein expression at 0.25 to 2 uM incubated for 24 hrs by immunoblotting analysis; assay type: functional, cell-based; details: dose 0.25-2 µM
# [27] = Volume of distribution in BALB/c mouse at 20 mg/kg, ip measured upto 24 hrs by LC-MS/MS analysis; assay type: ADME, organism-based; details: in vivo
# [28] = Elimination half life in BALB/c mouse at 20 mg/kg, ip measured upto 24 hrs by LC-MS/MS analysis; assay type: ADME, organism-based; details: in vivo, read-out: beta t1/2 (converted)
# HCT-116 [29] = experiment: Induction of cell cycle arrest in human HCT-116 cells assessed as accumulation of cells at S phase at 2 uM incubated for 24 hrs by RNase/PI staining-based FACS flow cytometry analysis (reference value: 11 %); assay type: functional
# HCT-116 [30] = experiment: Induction of DNA damage in human HCT-116 cell assessed as comet tail formation at 0.5 uM incubated for 24 hrs by EtBr-based alkaline Comet assay (Rvb= 2.99 %); assay type: functional
# HCT-116 [31] = experiment: Inhibition of DNA repairing pathway in human HCT-116 cells assessed as downregulation of Rad51 protein expression at 0.25 to 2 uM incubated for 24 hrs by immunoblotting analysis; assay type: functional, cell-based; details: dose 0.25-2 µM
# HCT-116 [32] = experiment: Inhibition of epithelial-to-mesenchymal transition in human HCT-116 cells assessed as reduction in VEGF-induced cell scattering incubated for 48 hrs by inverted microscopic analysis; assay type: functional, cell-based
# HCT-116 [33] = experiment: Inhibition of DNA repairing pathway in human HCT-116 cells assessed as increase in gamma-H2AX level at 0.25 to 2 uM incubated for 24 hrs by immunoblotting analysis; assay type: functional, cell-based; details: dose 0.25-2 µM
smiles,measurement,setting,value
COC(=O)[C@]1([C@H]2CCn3c2nc2ccccc2c3=O)NCCc2c1[nH]c1ccccc21 (racemic),Activity,HCT-116 [1],Active
same,Activity,HCT-116 [2],7%
same,inhibition,HCT-116 [3],Active
same,Activity,HCT-116 [4],17%
same,Activity,HCT-116 [5],5.21%
same,IC50 at 44 h,[6],19.7 µM
same,Activity,HCT-116 [7],51.03%
same,inhibition,HCT-116 [8],Active
same,AUC at 24 h,[9],> 25 µM·h
same,Tmax,[10],0.8 h
same,Activity,HCT-116 [11],48%
same,inhibition,HCT-116 [12],Active
same,inhibition,HCT-116 [13],Active
same,Activity,HCT-116 [14],21%
same,Activity,HCT-116 [15],74%
same,AUC(0-inf),[16],11.2 µg·h/mL
same,inhibition,HCT-116 [17],Active
same,Activity,HCT-116 [18],71%
same,Activity,4T1,89.3%
same,IC50,PC-3,6.05 µM
same,Activity,HCT-116 [19],Active
same,Activity,HCT-116 [20],7%
same,inhibition,HCT-116 [21],Active
same,Activity,[22],Non-Toxic
same,Activity,HCT-116 [23],66%
same,inhibition,HCT-116 [24],Active
same,Activity,HCT-116 [25],24.72%
same,inhibition,HCT-116 [26],Active
same,Vd,[27],4.4 L/kg
same,half-life,[28],1.6 h
same,Activity,HCT-116 [29],4%
same,Activity,HCT-116 [30],31.99%
same,inhibition,HCT-116 [31],Active
same,inhibition,HCT-116 [32],Active
same,inhibition,HCT-116 [33],Active

# Reference: ChEMBL document CHEMBL5325471, “Identification of new modulator of DNA repairing pathways based on natural product (±)-peharmaline A” (Bioorg Med Chem, 2023)
